pEC50: −log10 of the molar value.
These compounds were tested against T1, human κ opioid receptors (Homo sapiens, UniProt P41145) (assay: Opioid receptor function test (Lance Ultra cAMP kit, agonist activity)). Conditions: CHO cells expressing human κ opioid receptors, 10 μM forskolin, 30 minutes.
T1 construct: host or cells: CHO cells
Format: cell-based
Protocol: Opioid Receptor Function Test
The function activity of the compound of the present invention on κ opioid receptors was examined.
Method: Using a Lance Ultra cAMP kit (Perkin Elmer), the examination was performed according to a predetermined method. In evaluation of agonist activity, CHO cells expressing human κ opioid receptors (Catalog No. CT6606, accession No. NM_000912) and a test compound were reacted in an assay buffer (1×HSS, 5 mM HEPES, pH 7.4, 0.5 mM IBMX (isobutylmethyixanthine), 0.1% SA) in the presence of 10 μM forskolin for 30 minutes. Subsequently, a cAMP detection reagent in the kit was added. One hour later, time-resolved fluorescence measurement was performed using an EnVision plate reader (Perkin Elmer). The evaluation of the test compound was performed in a concentration range of 10^−14 to 10^−7 M for the κ opioid receptor function test.

T1 sequence (P41145 whole entry): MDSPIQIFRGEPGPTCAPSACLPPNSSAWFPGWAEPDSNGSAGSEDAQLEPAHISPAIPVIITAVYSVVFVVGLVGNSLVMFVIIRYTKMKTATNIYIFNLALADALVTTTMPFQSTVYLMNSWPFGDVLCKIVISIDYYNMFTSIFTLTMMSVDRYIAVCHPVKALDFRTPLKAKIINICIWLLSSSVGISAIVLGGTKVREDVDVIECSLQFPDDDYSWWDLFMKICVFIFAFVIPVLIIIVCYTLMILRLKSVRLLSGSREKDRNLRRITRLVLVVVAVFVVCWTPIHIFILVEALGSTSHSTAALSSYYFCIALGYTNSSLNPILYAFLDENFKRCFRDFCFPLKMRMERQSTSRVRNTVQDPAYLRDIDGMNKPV

| SMILES | pEC50 |
| --- | --- |
| Cc1cnn(C2CC(N3CC[C@]45CCN(CC6CC6)[C@H](Cc6ccc(O)cc64)[C@]5(O)CC3)C2)c1 (single isomer, unassigned) [Example 227 (I)] | 10.82 |
| Cc1cnn(C2CC(N3CC[C@]45CCN(CC6CC6)[C@H](Cc6ccc(O)cc64)[C@]5(O)CC3)C2)c1 (single isomer, unassigned) [Example 227 (II)] | 9.80 |
| Oc1ccc2c(c1)[C@@]13CCN(CCc4cc[nH]n4)CC[C@@]1(O)[C@@H](C2)N(CC1CC1)CC3 [Example 27, (5aS,6R,11bS)-3-(2-(1H-pyrazol-3-yl)ethyl)-14-(cyclopropylmethyl)-2,3,4,5,6,7-hexahydro-6,11b-(epiminoethano)naphtho[1,2-d]azepine-5a,10(1H)-diol] | 9.89 |
| Oc1ccc2c(c1)[C@@]13CCN(CCc4ccco4)CC[C@@]1(O)[C@@H](C2)N(CC1CC1)CC3 [Example 32, (5aS,6R,11bS)-14-(cyclopropylmethyl)-3-(2-(furan-2-yl)ethyl)-2,3,4,5,6,7-hexahydro-6,11b-(epiminoethano)naphtho[1,2-d]azepine-5a,10(1H)-diol] | 9.89 |
| O=C(Cc1cscn1)N1CC[C@]23CCN(CC4CC4)[C@H](Cc4ccc(O)cc42)[C@]3(O)CC1 [Example 33, 1-((5aS,6R,11bR)-14-(cyclopropylmethyl)-5a,10-dihydroxy-1,2,5,5a,6,7-hexahydro-6,11b-(epiminoethano)naphtho[1,2-d]azepin-3(4H)-yl)-2-(thiazol-4-yl)ethan-1-one] | 9.04 |
| Cn1nc(CC(=O)N2CC[C@]34CCN(CC5CC5)[C@H](Cc5ccc(O)cc53)[C@]4(O)CC2)cc1C(F)(F)F [Example 36, 1-((5aS,6R,11bR)-14-(cyclopropylmethyl)-5a,10-dihydroxy-1,2,5,5a,6,7-hexahydro-6,11b-(epiminoethano)naphtho[1,2-d]azepin-3(4H)-yl)-2-(1-methyl-5-(trifluoromethyl)-1H-pyrazol-3-yl)ethan-1-one] | 10.60 |
| Cn1nc(CCN2CC[C@]34CCN(CC5CC5)[C@H](Cc5ccc(O)cc53)[C@]4(O)CC2)cc1C(F)(F)F [Example 37, (5aS,6R,11bS)-14-(cyclopropylmethyl)-3-(2-(1-methyl-5-(trifluoromethyl)-1H-pyrazol-3-yl)ethyl)-2,3,4,5,6,7-hexahydro-6,11b-(epiminoethano)naphtho[1,2-d]azepine-5a,10(1H)-diol] | 10.29 |
| Cn1cnc(CCN2CC[C@]34CCN(CC5CC5)[C@H](Cc5ccc(O)cc53)[C@]4(O)CC2)c1 [Example 41, (5aS,6R,11bS)-14-(cyclopropylmethyl)-3-(2-(1-methyl-1H-imidazol-4-yl)ethyl)-2,3,4,5,6,7-hexahydro-6,11b-(epiminoethano)naphtho[1,2-d]azepine-5a,10(1H)-diol] | 9.89 |
| Cc1ccn(CCN2CC[C@]34CCN(CC5CC5)[C@H](Cc5ccc(O)cc53)[C@]4(O)CC2)n1 [Example 47, (5aS,6R,11bS)-14-(cyclopropylmethyl)-3-(2-(3-methyl-1H-pyrazol-1-yl)ethyl)-2,3,4,5,6,7-hexahydro-6,11b-(epiminoethano)naphtho[1,2-d]azepine-5a,10(1H)-diol] | 9.64 |
| Cc1cnn(CC(=O)N2CC[C@]34CCN(CC5CC5)[C@H](Cc5ccc(O)cc53)[C@]4(O)CC2)c1 [Example 49, 1-((5aS,6R,11bR)-14-(cyclopropylmethyl)-5a,10-dihydroxy-1,2,5,5a,6,7-hexahydro-6,11b-(epiminoethano)naphtho[1,2-d]azepin-3(4H)-yl)-2-(4-methyl-1H-pyrazol-1-yl)ethan-1-one] | 10.05 |
| Cc1ccnn1CCN1CC[C@]23CCN(CC4CC4)[C@H](Cc4ccc(O)cc42)[C@]3(O)CC1 [Example 52, (5aS,6R,11bS)-14-(cyclopropylmethyl)-3-(2-(5-methyl-1H-pyrazol-1-yl)ethyl)-2,3,4,5,6,7-hexahydro-6,11b-(epiminoethano)naphtho[1,2-d]azepine-5a,10(1H)-diol] | 9.82 |
| Oc1ccc2c(c1)[C@@]13CCN(CCn4ccc(C(F)(F)F)n4)CC[C@@]1(O)[C@@H](C2)N(CC1CC1)CC3 [Example 54, (5aS,6R,11bS)-14-(cyclopropylmethyl)-3-(2-(3-(trifluoromethyl)-1H-pyrazol-1-yl)ethyl)-2,3,4,5,6,7-hexahydro-6,11b-(epiminoethano)naphtho[1,2-d]azepine-5a,10(1H)-diol] | 9.44 |
| Cc1cc(C)n(CCN2CC[C@]34CCN(CC5CC5)[C@H](Cc5ccc(O)cc53)[C@]4(O)CC2)n1 [Example 56, (5aS,6R,11bS)-14-(cyclopropylmethyl)-3-(2-(3,5-dimethyl-1H-pyrazol-1-yl)ethyl)-2,3,4,5,6,7-hexahydro-6,11b-(epiminoethano)naphtho[1,2-d]azepine-5a,10(1H)-diol] | 9.01 |
| Oc1ccc2c(c1)[C@@]13CCN(CCn4nc(C(F)F)cc4C(F)F)CC[C@@]1(O)[C@@H](C2)N(CC1CC1)CC3 [Example 58, (5aS,6R,11bS)-3-(2-(3,5-bis(difluoromethyl)-1H-pyrazol-1-yl)ethyl)-14-(cyclopropylmethyl)-2,3,4,5,6,7-hexahydro-6,11b-(epiminoethano)naphtho[1,2-d]azepine-5a,10(1H)-diol] | 9.85 |
| O=C(Cn1cc(Br)cn1)N1CC[C@]23CCN(CC4CC4)[C@H](Cc4ccc(O)cc42)[C@]3(O)CC1 [Example 60, 2-(4-bromo-1H-pyrazol-1-yl)-1-((5aS,6R,11bR)-14-(cyclopropylmethyl)-5a,10-dihydroxy-1,2,5,5a,6,7-hexahydro-6,11b-(epiminoethano)naphtho[1,2-d]azepin-3(4H)-yl)ethan-1-one] | 10.25 |
| Oc1ccc2c(c1)[C@@]13CCN(CCn4nccn4)CC[C@@]1(O)[C@@H](C2)N(CC1CC1)CC3 [Example 66, (5aS,6R,11bS)-3-(2-(2H-1,2,3-triazol-2-yl)ethyl)-14-(cyclopropylmethyl)-2,3,4,5,6,7-hexahydro-6,11b-(epiminoethano)naphtho[1,2-d]azepine-5a,10(1H)-diol] | 9.85 |
| Oc1ccc2c(c1)[C@@]13CCN(CCCc4ccccn4)CC[C@@]1(O)[C@@H](C2)N(CC1CC1)CC3 [Example 69, (5aS,6R,11bS)-14-(cyclopropylmethyl)-3-(3-(pyridin-2-yl)propyl)-2,3,4,5,6,7-hexahydro-6,11b-(epiminoethano)naphtho[1,2-d]azepine-5a,10(1H)-diol] | 9.55 |
| Oc1ccc2c(c1)[C@@]13CCN(CCc4ncccn4)CC[C@@]1(O)[C@@H](C2)N(CC1CC1)CC3 [Example 83, (5aS,6R,11bS)-14-(cyclopropylmethyl)-3-(2-(pyrimidin-2-yl)ethyl)-2,3,4,5,6,7-hexahydro-6,11b-(epiminoethano)naphtho[1,2-d]azepine-5a,10(1H)-diol] | 9.43 |
| Oc1ccc2c(c1)[C@@]13CCN(CCc4cnccn4)CC[C@@]1(O)[C@@H](C2)N(CC1CC1)CC3 [Example 84, (5aS,6R,11bS)-14-(cyclopropylmethyl)-3-(2-(pyrazin-2-yl)ethyl)-2,3,4,5,6,7-hexahydro-6,11b-(epiminoethano)naphtho[1,2-d]azepine-5a,10(1H)-diol] | 9.33 |
| Oc1ccc2c(c1)[C@@]13CCN(CCc4cccc(C(F)(F)F)n4)CC[C@@]1(O)[C@@H](C2)N(CC1CC1)CC3 [Example 88, (5aS,6R,11bS)-14-(cyclopropylmethyl)-3-(2-(6-(trifluoromethyl)pyridin-2-yl)ethyl)-2,3,4,5,6,7-hexahydro-6,11b-(epiminoethano)naphtho[1,2-d]azepine-5a,10(1H)-diol] | 9.12 |
| Oc1ccc2c(c1)[C@@]13CCN(CCc4ncccc4F)CC[C@@]1(O)[C@@H](C2)N(CC1CC1)CC3 [Example 100, (5aS,6R,11bS)-14-(cyclopropylmethyl)-3-(2-(3-fluoropyridin-2-yl)ethyl)-2,3,4,5,6,7-hexahydro-6,11b-(epiminoethano)naphtho[1,2-d]azepine-5a,10(1H)-diol] | 9.59 |
| Cc1cccnc1CCN1CC[C@]23CCN(CC4CC4)[C@H](Cc4ccc(O)cc42)[C@]3(O)CC1 [Example 102, (5aS,6R,11bS)-14-(cyclopropylmethyl)-3-(2-(3-methylpyridin-2-yl)ethyl)-2,3,4,5,6,7-hexahydro-6,11b-(epiminoethano)naphtho[1,2-d]azepine-5a,10(1H)-diol] | 9.89 |
| Cc1ccnc(CCN2CC[C@]34CCN(CC5CC5)[C@H](Cc5ccc(O)cc53)[C@]4(O)CC2)c1 [Example 105, (5aS,6R,11bS)-14-(cyclopropylmethyl)-3-(2-(4-methylpyridin-2-yl)ethyl)-2,3,4,5,6,7-hexahydro-6,11b-(epiminoethano)naphtho[1,2-d]azepine-5a,10(1H)-diol] | 10.06 |
| Oc1ccc2c(c1)[C@@]13CCN(CC4(c5ccccn5)CC4)CC[C@@]1(O)[C@@H](C2)N(CC1CC1)CC3 [Example 108, (5aS,6R,11bS)-14-(cyclopropylmethyl)-3-((1-(pyridin-2-yl)cyclopropyl)methyl)-2,3,4,5,6,7-hexahydro-6,11b-(epiminoethano)naphtho[1,2-d]azepine-5a,10(1H)-diol] | 10.18 |
| Oc1ccc2c(c1)[C@@]13CCN(CCc4n[nH]c5ccccc45)CC[C@@]1(O)[C@@H](C2)N(CC1CC1)CC3 [Example 112, (5aS,6R,11bS)-3-(2-(1H-indazol-3-yl)ethyl)-14-(cyclopropylmethyl)-2,3,4,5,6,7-hexahydro-6,11b-(epiminoethano)naphtho[1,2-d]azepine-5a,10(1H)-diol] | 10.43 |
| Cn1nc(CCN2CC[C@]34CCN(CC5CC5)[C@H](Cc5ccc(O)cc53)[C@]4(O)CC2)c2ccccc21 [Example 113, (5aS,6R,11bS)-14-(cyclopropylmethyl)-3-(2-(1-methyl-1H-indazol-3-yl)ethyl)-2,3,4,5,6,7-hexahydro-6,11b-(epiminoethano)naphtho[1,2-d]azepine-5a,10(1H)-diol] | 9.25 |

From patent US20230087342A1, “AZEPANE DERIVATIVE” (Nippon Chemiphar Co., Ltd., priority 2019, published 2023)
